Experimental data as given in ChEMBL document CHEMBL1135329, “DNA binding ligands with excellent antibiotic potency against drug-resistant gram-positive bacteria” (Bioorg Med Chem Lett, 2002).
In brackets after ≈: the same amount, converted by molar mass.

What was measured:
Assay type in all cases: functional
Staphylococcus aureus [1] = test: Antimicrobial activity was determined against methicillin-susceptible S. aureus(MSSA 29213)
Staphylococcus aureus [2] = test: Antimicrobial activity was determined against methicillin-resistant Staphylococcus aureus (MRSA 27660)
Streptococcus pneumoniae [3] = test: Antimicrobial activity was determined against penicillin-resistant Streptococcus pneumoniae (PRSP 51422)
Enterococcus faecalis [4] = test: Antimicrobial activity was determined against vancomycin-susceptible Enterococcus faecalis (VSEF 29212)
Enterococcus faecalis [5] = test: Antimicrobial activity was determined against vancomycin-resistant Enterococcus faecalis (VREF 51559)
Candida albicans = test: Antifungal activity was determined against Candida albicans
Escherichia coli = test: Binding to the sequence 5'-ACAATTAA-3', a site proximal to the […] RNA polymerase subunit binding site within the Escherichia coli Trc promoter.; conditions: read-out: Kd app
Streptococcus pneumoniae [6] = test: Antimicrobial activity was determined against penicillin-susceptible Streptococcus pneumoniae (PSSP 49619)

| SMILES | MIC (Staphylococcus aureus [1]) | MIC (Staphylococcus aureus [2]) | MIC (Streptococcus pneumoniae [3]) | MIC (Enterococcus faecalis [4]) | MIC (Enterococcus faecalis [5]) | MIC (Candida albicans) | Kd (Escherichia coli) | MIC (Streptococcus pneumoniae [6]) |
| --- | --- | --- | --- | --- | --- | --- | --- | --- |
| Cn1cc(NC(=O)c2cc(NC(=O)c3cc(NC(=O)c4nsc(N5CCCCC5)c4Cl)cn3C)cn2C)cc1C(=O)NCCN1CCOCC1 | 2 µg/mL (≈ 2.76 µM) | 1 µg/mL (≈ 1.38 µM) | 0.062 µg/mL (≈ 0.0855 µM) | 1 µg/mL (≈ 1.38 µM) | 1 µg/mL (≈ 1.38 µM) | > 32 µg/mL | 4 nM | 0.125 µg/mL (≈ 0.172 µM) |
| CN(C)CCCNC(=O)c1cc(NC(=O)c2cc(NC(=O)c3cc(NC(=O)c4nsc(NCCCCN)c4Cl)cn3C)cn2C)cn1C | 2 µg/mL (≈ 2.86 µM) | 2 µg/mL (≈ 2.86 µM) | 1 µg/mL (≈ 1.43 µM) | 1 µg/mL (≈ 1.43 µM) | 1 µg/mL (≈ 1.43 µM) | 8 µg/mL (≈ 11.4 µM) | 1.04 nM | 0.5 µg/mL (≈ 0.714 µM) |
| Cn1cc(NC(=O)c2cc(NC(=O)c3cc(NC(=O)c4nsc(NCCc5ccccn5)c4Cl)cn3C)cn2C)cc1C(=O)NCCN1CCOCC1 | 1 µg/mL (≈ 1.31 µM) | 2 µg/mL (≈ 2.62 µM) | 0.5 µg/mL (≈ 0.656 µM) | 0.5 µg/mL (≈ 0.656 µM) | 4 µg/mL (≈ 5.25 µM) | > 32 µg/mL | 0.83 nM | 0.125 µg/mL (≈ 0.164 µM) |
| Cn1cc(NC(=O)c2cc(NC(=O)c3cc(NC(=O)c4nsc(NCCN5CCOCC5)c4Cl)cn3C)cn2C)cc1C(=O)NCCc1ccncc1 | 0.125 µg/mL (≈ 0.164 µM) | 0.5 µg/mL (≈ 0.656 µM) | 0.5 µg/mL (≈ 0.656 µM) | 0.062 µg/mL (≈ 0.0813 µM) | 0.25 µg/mL (≈ 0.328 µM) | > 32 µg/mL | 4.35 nM | 0.062 µg/mL (≈ 0.0813 µM) |
| Cn1cc(NC(=O)c2cc(NC(=O)c3cc(NC(=O)c4nsc(NCCN5CCOCC5)c4Cl)cn3C)cn2C)cc1C(=O)NCCN1CCOCC1 | 1 µg/mL (≈ 1.3 µM) | 4 µg/mL (≈ 5.19 µM) | 0.25 µg/mL (≈ 0.325 µM) | 0.25 µg/mL (≈ 0.325 µM) | 2 µg/mL (≈ 2.6 µM) | > 32 µg/mL | 9.09 nM | 0.062 µg/mL (≈ 0.0805 µM) |
| Cn1cc(NC(=O)c2cc(NC(=O)c3cc(NC(=O)c4nsc(NCCCCN)c4Cl)cn3C)cn2C)cc1C(=O)NCCCNC1CCCCC1 | 0.5 µg/mL (≈ 0.663 µM) | 1 µg/mL (≈ 1.33 µM) | 4 µg/mL (≈ 5.3 µM) | 0.5 µg/mL (≈ 0.663 µM) | 2 µg/mL (≈ 2.65 µM) | 32 µg/mL (≈ 42.4 µM) | 0.43 nM | 1 µg/mL (≈ 1.33 µM) |
| Cn1cc(NC(=O)c2cc(NC(=O)c3cc(NC(=O)c4nsc(NCCN5CCOCC5)c4Cl)cn3C)cn2C)cc1C(=O)NCC1CC1 | 16 µg/mL (≈ 22.5 µM) | 8 µg/mL (≈ 11.2 µM) | 0.5 µg/mL (≈ 0.703 µM) | 0.5 µg/mL (≈ 0.703 µM) | 1 µg/mL (≈ 1.41 µM) | > 32 µg/mL | 208 nM | 1 µg/mL (≈ 1.41 µM) |
| CN(C)CCCNC(=O)c1cc(NC(=O)c2cc(NC(=O)c3cc(NC(=O)c4nsc(NCCCN)c4Cl)cn3C)cn2C)cn1C | 2 µg/mL (≈ 2.91 µM) | 1 µg/mL (≈ 1.46 µM) | 4 µg/mL (≈ 5.83 µM) | 1 µg/mL (≈ 1.46 µM) | 2 µg/mL (≈ 2.91 µM) | 8 µg/mL (≈ 11.7 µM) | 1.74 nM | 0.5 µg/mL (≈ 0.729 µM) |
| Cn1cc(NC(=O)c2cc(NC(=O)c3cc(NC(=O)c4nsc(NCCc5ccncc5)c4Cl)cn3C)cn2C)cc1C(=O)NCCN1CCOCC1 | 1 µg/mL (≈ 1.31 µM) | 1 µg/mL (≈ 1.31 µM) | 0.25 µg/mL (≈ 0.328 µM) | 0.25 µg/mL (≈ 0.328 µM) | 2 µg/mL (≈ 2.62 µM) | > 32 µg/mL | 0.29 nM | 0.062 µg/mL (≈ 0.0813 µM) |
| Cn1cc(NC(=O)c2cc(NC(=O)c3cc(NC(=O)c4nsc(NCC5CC5)c4Cl)cn3C)cn2C)cc1C(=O)NCCN1CCOCC1 | 0.5 µg/mL (≈ 0.703 µM) | 1 µg/mL (≈ 1.41 µM) | 0.125 µg/mL (≈ 0.176 µM) | 0.25 µg/mL (≈ 0.351 µM) | 1 µg/mL (≈ 1.41 µM) | > 32 µg/mL | 1.01 nM | 0.125 µg/mL (≈ 0.176 µM) |
| Cn1cc(NC(=O)c2cc(NC(=O)c3cc(NC(=O)c4nsc(NCCCO)c4Cl)cn3C)cn2C)cc1C(=O)NCCN1CCOCC1 | 1 µg/mL (≈ 1.4 µM) | 2 µg/mL (≈ 2.8 µM) | 0.031 µg/mL (≈ 0.0433 µM) | 0.125 µg/mL (≈ 0.175 µM) | 0.5 µg/mL (≈ 0.699 µM) | > 32 µg/mL | 1.03 nM | 0.5 µg/mL (≈ 0.699 µM) |
| Cn1cc(NC(=O)c2cc(NC(=O)c3cc(NC(=O)c4nsc(NCCCNC5CCCCC5)c4Cl)cn3C)cn2C)cc1C(=O)NCCCNC1CCCCC1 | 1 µg/mL (≈ 1.22 µM) | 1 µg/mL (≈ 1.22 µM) | 0.5 µg/mL (≈ 0.608 µM) | 2 µg/mL (≈ 2.43 µM) | 2 µg/mL (≈ 2.43 µM) | 16 µg/mL (≈ 19.5 µM) | 1.19 nM | 2 µg/mL (≈ 2.43 µM) |
| CCOCCCNC(=O)c1cc(NC(=O)c2cc(NC(=O)c3cc(NC(=O)c4nsc(NCCN5CCOCC5)c4Cl)cn3C)cn2C)cn1C | 16 µg/mL (≈ 21.5 µM) | 16 µg/mL (≈ 21.5 µM) | 1 µg/mL (≈ 1.35 µM) | 16 µg/mL (≈ 21.5 µM) | 4 µg/mL (≈ 5.38 µM) | > 32 µg/mL | 83.3 nM | 0.5 µg/mL (≈ 0.673 µM) |
| CN(C)CCCNC(=O)c1cc(NC(=O)c2cc(NC(=O)c3cc(NC(=O)c4nsc(NCCCCCCCN)c4Cl)cn3C)cn2C)cn1C | 32 µg/mL (≈ 43.1 µM) | 32 µg/mL (≈ 43.1 µM) | 16 µg/mL (≈ 21.6 µM) | 8 µg/mL (≈ 10.8 µM) | 1 µg/mL (≈ 1.35 µM) | > 32 µg/mL | 1.3 nM | 32 µg/mL (≈ 43.1 µM) |
| CCOCCCNc1snc(C(=O)Nc2cc(C(=O)Nc3cc(C(=O)Nc4cc(C(=O)NCCN5CCOCC5)n(C)c4)n(C)c3)n(C)c2)c1Cl | 1 µg/mL (≈ 1.35 µM) | 2 µg/mL (≈ 2.69 µM) | 0.125 µg/mL (≈ 0.168 µM) | 0.25 µg/mL (≈ 0.336 µM) | 2 µg/mL (≈ 2.69 µM) | > 32 µg/mL | 1.34 nM | 0.25 µg/mL (≈ 0.336 µM) |
| CN(C)CCCCNC(=O)c1cc(NC(=O)c2cc(NC(=O)c3cc(NC(=O)c4nsc(NCCCN)c4Cl)cn3C)cn2C)cn1C | 0.5 µg/mL (≈ 0.714 µM) | 0.25 µg/mL (≈ 0.357 µM) | 0.125 µg/mL (≈ 0.179 µM) | 0.125 µg/mL (≈ 0.179 µM) | 0.25 µg/mL (≈ 0.357 µM) | 0.25 µg/mL (≈ 0.357 µM) | 0.53 nM | 0.064 µg/mL (≈ 0.0914 µM) |
| Cn1cc(NC(=O)c2cc(NC(=O)c3cc(NC(=O)c4nsc(NCCCNC5CCCCC5)c4Cl)cn3C)cn2C)cc1C(=O)NCCCCN | 2 µg/mL (≈ 2.65 µM) | 2 µg/mL (≈ 2.65 µM) | 16 µg/mL (≈ 21.2 µM) | 2 µg/mL (≈ 2.65 µM) | 16 µg/mL (≈ 21.2 µM) | 4 µg/mL (≈ 5.3 µM) | 2 nM | 1 µg/mL (≈ 1.33 µM) |
| Cn1cc(NC(=O)c2cc(NC(=O)c3cc(NC(=O)c4nsc(NCCCNC5CCCCC5)c4Cl)cn3C)cn2C)cc1C(=O)NCCN1CCOCC1 | 2 µg/mL (≈ 2.51 µM) | 8 µg/mL (≈ 10 µM) | 0.25 µg/mL (≈ 0.314 µM) | 2 µg/mL (≈ 2.51 µM) | 16 µg/mL (≈ 20.1 µM) | 16 µg/mL (≈ 20.1 µM) | 0.59 nM | 0.062 µg/mL (≈ 0.0779 µM) |
| Cn1cc(NC(=O)c2cc(NC(=O)c3cc(NC(=O)c4nsc(NCCN5CCOCC5)c4Cl)cn3C)cn2C)cc1C(=O)NCCCO | > 32 µg/mL |  | 1 µg/mL (≈ 1.4 µM) | 32 µg/mL (≈ 44.7 µM) | > 32 µg/mL | > 32 µg/mL | 32.1 nM | 32 µg/mL (≈ 44.7 µM) |
| Cn1cc(NC(=O)c2cc(NC(=O)c3cc(NC(=O)c4nsc(NCCCCN)c4Cl)cn3C)cn2C)cc1C(=O)NCCN1CCOCC1 | 4 µg/mL (≈ 5.49 µM) | 4 µg/mL (≈ 5.49 µM) | 0.5 µg/mL (≈ 0.687 µM) | 4 µg/mL (≈ 5.49 µM) | 16 µg/mL (≈ 22 µM) | 8 µg/mL (≈ 11 µM) | 0.37 nM | 0.5 µg/mL (≈ 0.687 µM) |
